The values that follow come from paper PMC8268987, “In Search of Effective Anticancer Agents—Novel Sugar Esters Based on Polyhydroxyalkanoate Monomers” (International Journal of Molecular Sciences, 2021).

Where two headings read alike, the source gives them in different places.

Data set [1] deals with HTB140 cells. Nature of the data set: Nuclei roundness by image analysis, HTB140. It is filed as cell-based, human. To be noted: 0.0625 mg mL^–1; for nuclei circularity index: HTB140, after the first 24 h. Here is the method: (§1) Cellular studies 12-well plates were used, cell density 3 × 10^5 per well. After 24 h and 48 h of incubation with tested compounds (0.0625 mg mL^–1), the samples were fixed according to standard protocol. Tubulin (green; AlexaFluor-488 mouse anti-β-tubulin IgG; BD Biosciences, San Jose, CA, USA, Pharminogen; cat. 558605), vimentin (infra-red; I: rabbit-anti-vimentin IgG; GeneTex, Irvine, CA, USA; GTX100619; II: chicken-anti-rabbit-AlexaFluor647 IgG; ThermoFisher, Waltham, MA, USA) and counterstained nuclei (blue; Hoechst 33258; Sigma-Aldrich, Darmstadt, Germany) and F-actin (red; AlexaFluor546-phalloidin; ThermoFisher, Waltham, MA, USA). Next, the samples were washed 5 times with deionized water and prepared for imaging with Fluorescent Mounting Medium (Dako Omnis, Agilent, Santa Clara, CA, USA). Microscopic measurements and observations were carried out with the use of fluorescent techniques performed on Zeiss Axio Observer Z.1 microscope with LSM 710 module (Carl Zeiss Microscopy GmbH Carl-Zeiss-Promenade 10, 07745 Jena, Germany). Image acquisition, processing, deconvolution and analysis were performed using Zeiss ZEN Black software ver. 8.1.0.484 and FluoRender 2.21.0. An oil immersion 40×/NA:1.4 lens was used for observations. Parameters used for acquisition of cell morphology were: nucleus—blue channel (405 nm); microtubular network—green channel (488 nm); Actin—red channel (546 nm); vimentin—far red channel (647 nm).

For data set [2], the system named is normal (control) and cancer cell lines. The data set is described as follows: MTT cytotoxicity assay, summary statements over the tested cell lines. The data set is classed as cell-based, human. To be noted: data not shown.
In data set [3] the test system is DU145 prostate cancer cells. The data set is described as follows: MTT cytotoxicity assay, DU145.
Protocol: (§3) The following cell lines were used: human prostate cancer cells from metastases to the brain DU145 (ATCC® HTB-81™, Manassas, Virginia); healthy human prostate epithelial cell line as a control (PNT2; Sigma-Aldrich, Darmstadt, Germany); human melanoma Hs 294T (ATCC® HTB-140™, Manassas, Virginia); human epidermal keratinocytes (HaCaT) HEK001 (ATCC® CRL-2404™, Manassas, Virginia); and normal human skin fibroblasts BJ (ATCC® CRL2522™) as controls. The cells were cultured in 37 °C with humidified atmosphere enriched with 5% CO2 in appropriate cell culture media: DMEM F12Ham (Sigma-Aldrich, Darmstadt, Germany) + 5% FBS (Thermo Fisher Scientific; Gibco; Waltham, MA, USA); RPMI-1640 (Sigma-Aldrich, Darmstadt, Germany) + 10% FBS (Thermo Fisher Scientific; Gibco; Waltham, MA, USA); DMEM high glucose (Sigma-Aldrich) + 10% FBS (Thermo Fisher Scientific; Gibco; Waltham, MA, USA); DMEM low glucose (Sigma-Aldrich, Darmstadt, Germany) + 10% FBS (Thermo Fisher Scientific; Gibco; Waltham, MA, USA). All media contained a penicillin/streptomycin (Sigma-Aldrich, Darmstadt, Germany) cocktail.
(§4) For the determination of the cytotoxic effect of tested compounds, normal (control) and cancer cell lines cells were tested at a concentration of 2.5 × 10^4 cells cm^–^2 in appropriate culture medium into 96 well microplates (VWR, Radnor, PA, USA). Cells were preincubated with four different concentrations of tested compounds: 0.5, 0.25, 0.125 and 0.0625 mg mL^–1 for 24 h, 72 h and 120 h in cell incubator. After the incubation, MTT labelling reagent (final concentration 0.5 mg mL^–1) and solubilizing solution were added according to the protocol. The samples absorbance was measured using a microplate reader (Multiscan FC; Thermo Fisher Scientific, Waltham, MA, USA) by 570 nm wavelength, 620 nm for reference.
Data set [4] deals with HSF human skin fibroblasts.
Protocol: as §3, §4
For data set [5], the system named is HaCAT human skin keratynocytes.
Protocol: as §3, §4
In data set [6] the test system is HTB140 human skin melanoma cells. The data set is described as follows: MTT cytotoxicity assay, HTB140.
Protocol: as §3, §4
Data set [7] concerns PNT2 prostate epithelium cells. Nature of the data set: MTT cytotoxicity assay, PNT2 (control).
Protocol: as §3, §4
Data set [8] concerns HaCAT human skin keratynocytes. The data set is described as follows: MTT cytotoxicity assay, HaCAT (control). Particulars: 72 h.
Protocol: as §3, §4
Data set [9] relates to HSF human skin fibroblasts. The data set is described as follows: MTT cytotoxicity assay, HSF (control). To be noted: 72 h.
Protocol: as §3, §4
The subject of data set [10] is DU145 cells. Nature of the data set: Transmigration assay (Boyden's chamber), DU145. Particulars: DU145, 96 h, 0.0625 mg mL^–1, transmigration/proliferation ratio relative to sugar control. It is filed as cell-based, human. Here is the method: (§2) Transmigration assay was performed using 24-well glass-bottom plate (Eppendorf) containing microporous membranes in Boyden’s chamber (Corning; pore diameter: 8 μm; membrane diameter: 6.5 mm). Native DU145 and HTB140 cells were seeded at density of 3 × 10^5 cells per membrane with tested compounds (0.0625 mg mL^–1) and left for 48 and 96 h for transmigration. The transmigrating cells were fixed with 3.7% formaldehyde and counted. The result is presented as a reference to the rate of cell proliferation in the corresponding compound.

For data set [11], the system named is DU145 cells. The data set is described as follows: Nuclei roundness by image analysis, DU145. The data set is classed as cell-based, human. To be noted: DU145, after 48 h, 0.0625 mg mL^–1. How it is done:
as §1, with “Parameters used for acquisition of cell morphology were: nucleus—blue channel (405 nm); microtubular network—green channel (488 nm); Actin—red channel (546 nm); vimentin—far red channel (647 nm).” left out

In data set [12] the test system is HTB140 cells. The data set is described as follows: Transmigration assay (Boyden's chamber), HTB140. The data set is classed as cell-based, human. Particulars: HTB140, 96 h, 0.0625 mg mL^–1, relative to sugar control. Here is the method: as §2
Data set [13] deals with Jurkat (Human T-cell leukemia). Also noted: method as in doi:10.1002/app.47192, PMID 29904629. To be noted: cited from earlier work.

For `O=C[C@H](O)[C@@H](O)[C@@H](O)[C@H](O)CO` [gal, β-d-galactopyranose, reference compound], in the data set on HTB140 cells [1], the nuclei circularity index result is “smallest round nuclei”. For the same compound, in data set [2], the “cytotoxicity in the MTT test (in words)” value is recorded as “low cytotoxicity”.

On to `OC[C@H]1OC(O)[C@H](O)[C@@H](O)[C@@H]1O` (stereo partly drawn) [glu, α-D-glucopiranose, reference compound], for which the nuclei circularity index result in the data set with HTB140 cells [1] is listed as “smallest round nuclei”. Besides, the “cytotoxicity in the MTT test (in words)” value in [2] was “low cytotoxicity”.

On to galactose nonanoic ester [C9-gal], for which the IC50 in data set [3] (DU145, 24 h) stood at 1.56 mM; in data set [3] (DU145, 72 h) it was 0.78 mM; in [3] (DU145, 120 h), 1.56 mM; in [4], 1.56 mM; in [5], 1.56 mM; in data set [6] (HTB140, 24 h) it was 1.66 mM. The IC50 in data set [6] (HTB140, 72 h) is 1.56 mM; in data set [6] (HTB140, 120 h), 1.56 mM; in data set [7] (PNT2, 24 h), 2.39 mM; in data set [7] (PNT2, 72 h), 1.23 mM; in [7] (PNT2, 120 h) it was 2.36 mM; in [8] it was 1.56 mM. This compound came in with an IC50 in data set [9] of 1.56 mM.

In the case of lactose nonanoic ester [C9-lac], in the data set on HTB140 cells [1], the nuclei circularity index result is “highest circularity index”. Besides, the “change of nuclei shape (decrease in roundness index)” value in the data set on HTB140 cells [1] (HTB140, after the next 24 h (48 h)) is given as “biggest change”. Besides, the IC50 in data set [3] (DU145, 24 h) was determined as 0.92 mM; in data set [3] (DU145, 72 h) it was 0.84 mM; in data set [3] (DU145, 120 h), 0.46 mM; in data set [3] (read-out: Cytotoxicity of SFAE determined by MTT assay (IC50), Supplementary Table 2, DU145, 72 h, standard deviation on line d below), 0.837 mM; in data set [3] (read-out: Cytotoxicity of SFAE determined by MTT assay (IC50), Supplementary Table 2, DU145, 120 h, standard deviation on line d below), 0.46 mM; in [6] (HTB140, 24 h), 0.62 mM. The IC50 in data set [6] (HTB140, 72 h) was 0.92 mM; in data set [6] (HTB140, 120 h), 0.81 mM; in data set [6] (read-out: Cytotoxicity of SFAE determined by MTT assay (IC50), Supplementary Table 2, HTB 140, 24 h, standard deviation on line d below), 0.622 mM; in data set [6] (read-out: Cytotoxicity of SFAE determined by MTT assay (IC50), Supplementary Table 2, HTB 140, 120 h, standard deviation on line d below), 0.805 mM; in [7] (PNT2, 24 h), 1.71 mM; in [7] (PNT2, 72 h), 0.92 mM. The IC50 in data set [7] (PNT2, 120 h) worked out at 1.74 mM; in data set [7] (read-out: Cytotoxicity of SFAE determined by MTT assay (IC50), Supplementary Table 2, PNT2, 24 h, standard deviation on line d below) it was 1.71 mM; in [7] (read-out: Cytotoxicity of SFAE determined by MTT assay (IC50), Supplementary Table 2, PNT2, 120 h, standard deviation on line d below) it was 1.74 mM; in data set [8] it was 0.92 mM; in data set [9], 0.92 mM. In the data set with DU145 cells [10], the reduction of transmigration amounted to 25%. The “change of nuclei roundness” value in the data set with DU145 cells [11] is “decrease in nucleus roundness index”. The decrease of transmigration in the data set on HTB140 cells [12] was determined as 16%.

For the compound “mixture of (3R)-hydroxynonanoate glucose esters and (3R)-hydroxyheptanoate glucose esters [mPHN-glu]”, half-maximal inhibition in [5] (IC50) was put at 1.43 mM.

On to octanoic acid glucose ester, for which the IC50 in data set [13] was 0.12 mM.
